Measurements from the supplement of paper PMC9938120.

Columns and labels:
Test in all cases: drug sensitivity score (DSS3, normalised partial AUC of % inhibition dose-response) (DSS (score)); higher = more sensitive (stronger inhibition of viability); extreme values may be limits of the assay
FMOC02_1 = patient-derived low-grade serous ovarian cancer cells; settings: 72 h; library: FO5A; assay format: 2D, 384-well, CellTiter-Glo
Summary of the method: (§1)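 The drug sensitivity score is calculated as a partial area under the percent-inhibition dose-response curve, divided by the log of the upper asymptote; higher scores mean more sensitive. For this score, early-passage (under 10) patient-derived ovarian cancer cells were exposed on 384-well flat clear-bottom plates to compounds at five concentrations across a 10,000-fold range for 72 h at 37 °C, 5% CO2. Viability was read with CellTiter-Glo and processed in Breeze.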

FMOC02_2 = patient-derived low-grade serous ovarian cancer cells; settings: 72 h; library: FO5A; assay format: 2D, 384-well, CellTiter-Glo
Summary of the method: as §1

FMOC02_3 = patient-derived low-grade serous ovarian cancer cells; settings: 72 h; library: FO5A; assay format: 2D, 384-well, CellTiter-Glo
Summary of the method: as §1

FMOC03 = patient-derived mucinous ovarian cancer cells; settings: 72 h; library: FO5A; assay format: 2D, 384-well, CellTiter-Glo
Summary of the method: as §1

FMOC04 = patient-derived high-grade serous ovarian cancer cells; settings: 72 h; library: FO5A; assay format: 2D, 384-well, CellTiter-Glo
Summary of the method: as §1

FMOC06 = patient-derived mucinous ovarian cancer cells; settings: 72 h; library: FO5A; assay format: 2D, 384-well, CellTiter-Glo
Summary of the method: as §1

FMOC09 = patient-derived high-grade serous ovarian cancer cells; settings: 72 h; library: FO5A; assay format: 2D, 384-well, CellTiter-Glo
Summary of the method: as §1

FMOC11 = patient-derived high-grade serous ovarian cancer cells; settings: 72 h; library: FO5A; assay format: 2D, 384-well, CellTiter-Glo
Summary of the method: as §1

FMOC14 = patient-derived high-grade serous ovarian cancer cells; settings: 72 h; library: FO5A; assay format: 2D, 384-well, CellTiter-Glo
Summary of the method: as §1

FMOC17 = patient-derived low-grade serous ovarian cancer cells; settings: 72 h; library: FO5A; assay format: 2D, 384-well, CellTiter-Glo
Summary of the method: as §1

FMOC22 = patient-derived mucinous ovarian cancer cells; settings: 72 h; library: FO5A; assay format: 2D, 384-well, CellTiter-Glo
Summary of the method: as §1

FMOC24 = patient-derived high-grade serous ovarian cancer cells; settings: 72 h; library: FO5A; assay format: 2D, 384-well, CellTiter-Glo
Summary of the method: as §1

FMOC25_1 = patient-derived low-grade serous ovarian cancer cells; settings: 72 h; library: FO4B; assay format: 2D, 384-well, CellTiter-Glo
Summary of the method: as §1

FMOC25_2 = patient-derived low-grade serous ovarian cancer cells; settings: 72 h; library: FO5A; assay format: 2D, 384-well, CellTiter-Glo
Summary of the method: as §1

FMOC27 = patient-derived low-grade serous ovarian cancer cells; settings: 72 h; library: FO5A; assay format: 2D, 384-well, CellTiter-Glo
Summary of the method: as §1

FMOC28 = patient-derived low-grade serous ovarian cancer cells; settings: 72 h; library: FO5A; assay format: 2D, 384-well, CellTiter-Glo
Summary of the method: as §1

Row | SMILES | drug sensitivity score (FMOC02_1) | drug sensitivity score (FMOC02_2) | drug sensitivity score (FMOC02_3) | drug sensitivity score (FMOC03) | drug sensitivity score (FMOC04) | drug sensitivity score (FMOC06) | drug sensitivity score (FMOC09) | drug sensitivity score (FMOC11) | drug sensitivity score (FMOC14) | drug sensitivity score (FMOC17) | drug sensitivity score (FMOC22) | drug sensitivity score (FMOC24) | drug sensitivity score (FMOC25_1) | drug sensitivity score (FMOC25_2) | drug sensitivity score (FMOC27) | drug sensitivity score (FMOC28)
1 | O=C(Nc1cccnc1)N1CCC(Cc2cccc(Oc3ccc(C(F)(F)F)cn3)c2)CC1 [PF-3845] | 1.1 | 3.3 | 1.2 | 2.3 | 0 | 0.1 | 0 | 0 | 0 | 1.6 | 1.5 | 0.4 | 1.7 | 0 | 1.9 | 2.5
2 | CC(O)(CS(=O)(=O)c1ccc(F)cc1)C(=O)Nc1ccc(C#N)c(C(F)(F)F)c1 (stereo not given) [Bicalutamide] | 0.1 | 0 | 0 | 0 | 0 | 1.1 | 0 | 0 | 0 | 0.9 | 0 | 0.85 | 0 | 0 | 0 | 0
3 | C/C(=C\c1csc(C)n1)[C@@H]1C[C@@H]2O[C@]2(C)CCC[C@H](C)[C@H](O)[C@@H](C)C(=O)C(C)(C)[C@@H](O)CC(=O)N1 [Ixabepilone] | 4.1 | 1.7 | 2.6 | 3 | 1.85 | 2.7 | 1.7 | 3.1 | 0 | 4.4 | 2.3 | 0 | 1.1 | 2.5 | 0.9 | 0
4 | Cn1ncc(Cl)c1-c1cc(C(=O)N[C@H](CN)Cc2cccc(F)c2)sc1Cl [Afuresertib] | 4.7 | 6.6 | 4.4 | 0 | 1.65 | 2.9 | 1 | 0.2 | 3.2 | 3 | 0 | 1.3 | 2.9 | 4.3 | 5.4 | 3.8
5 | CNc1nc(-c2ccc3c(N)n[nH]c3c2)cc(N2C[C@@H](C(=O)NC3CCCCC3)CC[C@H]2C)n1 | 3.8 | 8.7 | 0.8 | 0 | 0.5 | 4.2 | 0 | 0 | 0.6 | 0 | 0 | 0 | 6.9 | 5.7 | 1.4 | 6
6 | CCN1CCN(Cc2ccc(Nc3ncc(F)c(-c4cc(F)c5nc(C)n(C(C)C)c5c4)n3)nc2)CC1 [Abemaciclib] | 7 | 6.6 | 11.6 | 2.3 | 0.35 | 4 | 2.1 | 0.8 | 0.1 | 3.4 | 0 | 1.7 | 0.1 | 7.5 | 3.2 | 0
7 | C[C@@H]1C=C2C(=O)O[C@@H]3CC[C@H](C1)[C@]23O [Galiellalactone] | 5.9 | 5.9 | 2.3 | 3.9 | 5.9 | 2.5 | 6.7 | 4 | 5.5 | 5.8 | 4.2 | 1.65 | 0 | 4.6 | 3.8 | 6.7
8 | Oc1ncnc2[nH]ncc12 [Allopurinol] | 0 | 0 | 0 | 0 | 0 | 0 | 0 | 0 | 0 | 0 | 0 | 0 | 1.3 | 0 | 0 | 0
9 | N[C@@H]1CCCN(c2c(/C=C3\SC(=O)NC3=O)cccc2-c2ccccc2)C1 [AZD1208] | 1 | 0 | 5.9 | 0 | 0 | 4.7 | 3.2 | 0 | 0 | 0 | 0 | 0 | 0.5 | 2.4 | 0 | 0
10 | C=CCN(/C=C1/C(=O)O[C@H](COC)[C@@]2(C)C1=C(O)C(=O)C1=C2[C@H](OC(C)=O)C[C@]2(C)C(=O)CC[C@@H]12)CC=C [Sonolisib] | 0 | 0.3 | 0.4 | 0 | 0 | 0 | 0 | 0 | 0 | 0 | 0 | 0.25 | 0 | 0 | 0 | 0.4
11 | CN1C(=O)N[C@H](Cc2c[nH]c3c(Cl)cccc23)C1=O [Necrostatin 2] | 0 | 0 | 0 | 0 | 0 | 0 | 0 | 0 | 0 | 0.7 | 0 | 0 |  | 0.3 | 0 | 2.5
12 | COCCNCc1ccc(-c2cc3nccc(Oc4ccc(NC(=O)C5(C(=O)Nc6ccc(F)cc6)CC5)cc4F)c3s2)nc1 [Sitravatinib] | 2.1 | 1.1 | 2.5 | 0.3 | 0.45 | 1.6 | 1.4 | 1.1 | 1.2 | 2.1 | 0.4 | 5.8 |  | 2.2 | 2.5 | 1.5
13 | O=C(NCc1ccncc1)C12CC3CC(C1)CC(c1ccc(Cl)cc1)(C3)C2 | 2.6 | 3.2 | 5.3 | 4.5 | 2 | 5.6 | 4.2 | 5.8 | 1.6 | 3.1 | 5.2 | 4.7 |  | 3.1 | 4.1 | 4.8
14 | C[C@H]1CNCCCN1S(=O)(=O)c1cccc2cncc(F)c12 [Ripasudil] | 0 | 0 | 0 | 0 | 0 | 0 | 0 | 0 | 0 | 0 | 0 | 0 |  | 0 | 0 | 0
15 | Cc1ccc(=O)n(-c2ccccc2)c1 [Pirfenidone] | 0 | 0 | 0 | 0 | 0 | 0 | 0 | 0.1 | 0 | 0.6 | 0 | 0 |  | 0 | 0 | 0
16 | CN1CCN(C(=O)c2ccc3cc(CCNc4ncnc5ccc(C#N)cc45)ccc3c2)CC1 [Senexin B] | 0.6 | 1.3 | 2.9 | 1.5 | 0 | 1 | 0 | 0 | 0 | 0.6 | 0 | 0.2 |  | 1.2 | 0 | 0
17 | C[C@@H]1CN(C(=O)c2ccc(NC(=O)c3cc(O[C@H](C)c4c(Cl)ccc(F)c4Cl)c(N)nn3)cc2)C[C@H](C)N1 [Ensartinib] | 4.3 | 0.4 | 1.6 | 0 | 0.05 | 3 | 1.1 | 0.2 | 0 | 1.5 | 0.1 | 0.7 |  | 0.8 | 0 | 2.2
18 | CC#CC(=O)N1CC[C@@H](n2c(=O)n(-c3ccc(Oc4ccccc4)cc3)c3c(N)ncnc32)C1 [Tirabrutinib] | 3.9 | 3.9 | 3.5 | 1.8 | 0 | 0 | 0 | 1.6 | 0 | 2.6 | 0 | 0 |  | 3.5 | 1.1 | 0
19 | COCCOc1cnc2ccn([C@H](C)c3nnc4c(F)cc(-c5cnn(C)c5)cn34)c(=O)c2c1 [AMG-337] | 0 | 0 | 0 | 0 | 0 | 0 | 0 | 0 | 0 | 0 | 0 | 0 |  | 0 | 0 | 3.4
20 | CC1(C)C(C(=O)Nc2ccc(S(=O)(=O)c3ccc(NC(=O)C4C(C)(C)C4(C)C)cc3)cc2)C1(C)C [BRD7116] | 0 | 0.1 | 3.7 | 0.5 | 0 | 0.8 | 0 | 2.2 | 0 | 1.4 | 0 | 1.5 |  | 0 | 0 | 1
21 | CC#CC(=O)N1CCC[C@H]1c1nc(-c2ccc(C(=O)Nc3ccccn3)cc2)c2c(N)nccn12 [Acalabrutinib] | 0.3 | 0 | 0.7 | 0 | 0.6 | 2.6 | 0.8 | 0.2 | 0 | 2.2 | 0 | 0 |  | 0 | 0 | 0.5
22 | CN(C)CCCOc1ccc(-c2ccc3ncc4c(c3c2)n(C2CCOCC2)c(=O)n4C)cn1 [AZD0156] | 5.3 | 3.4 | 3.1 | 0.5 | 0.8 | 0.1 | 0.1 | 0 | 0 | 2.2 | 0.9 | 0 |  | 2.5 | 0 | 4.6
23 | CCCN(CCC)C(=O)C1=Cc2ccc(-c3ccc(C(=O)N4CCCC4)cc3)cc2N=C(N)C1 [Motolimod] | 0 | 0 | 1.6 | 0 | 0 | 0.3 | 0 | 0 | 0 | 0 | 0 | 0 |  | 0.1 | 0.4 | 2.5
